Assay type in all cases: cell-based
The subject of one data set is HepG2 cell line. Description: Cytotoxicity against human HepG2 cell lines.
Data set [1] deals with S. mansoni juvenile worms. Nature of the data set: In vitro assay, S. mansoni juvenile worms. The following applies: Schistosoma mansoni, read-out: (b) Juvenile. As to the method:
(§1) The routine biological assays using adult or juvenile worms and cytotoxicity assays using MRC-5 cells have been disclosed previously in Mansour, N. R., et al. (2016). “High Throughput Screening Identifies Novel Lead Compounds with Activity against Larval, Juvenile and Schistosoma mansoni PLoS Negl Trap Dis 10(4): e0004659. Cytotoxicity assays using the HepG2 cell line were carried out as described in Molecular Diversity (2015) 19, 251-261.
(b) S. mansoni juvenile worms

The test system of a further data set is S. mansoni adult worms. Nature of the data set: In vitro assay, S. mansoni adult worms. The note with it: Schistosoma mansoni; S. mansoni adult worms, in vitro; read-out: (a) Adult. The procedure: as §1
(a) S. mansoni adult worms

The mark [2] stands for this setting: S. mansoni juvenile worms, in vitro.

Like-named read-outs stand apart in the source and are kept apart here.

As to `CC(C)c1nc2cnc(-c3ccc(F)c(C(F)(F)F)c3)nc2n1-c1c(F)cc(O)cc1F` [Example 89, 3,5-Difluoro-4-[2-(4-fluoro-3-trifluoromethyl-phenyl)-8-isopropyl-purin-9-yl]-phenol], the “(e) Cytotox HepG2” value in the data set with HepG2 cell line was found to be 4.8 µM. In addition, the IC50 in data set [1] (setting [2]) was found to be 128 nM; in the data set with S. mansoni adult worms, 71 nM.

Take `CC(C)c1nc2cnc(-c3cccc(C(F)(F)F)c3)cn2c1-c1ccc2[nH]ncc2c1F` [Example 21, 4-fluoro-5-{2-propan-2-yl-6-[3-trifluoromethylphenyl]imidazo[1,2-a]pyrazin-3-yl}-1H-indazole]: the “(e) Cytotox HepG2” value in the data set on HepG2 cell line was determined as 15.1 µM. The IC50 in data set [1] (setting [2]) came to 51 nM; in the data set with S. mansoni adult worms it was 37 nM.

Turning to `CC(C)c1cc(-c2cn3c(-c4ccc5[nH]ncc5c4F)c(C4CC4)nc3cn2)ccc1F` [Example 79, 2-Cyclopropyl-3-(4-fluoro-1H-indazol-5-yl)-6-(4-fluoro-3-isopropyl-phenyl)-imidazo[1,2-a]pyrazine], in the data set on HepG2 cell line, the “(e) Cytotox HepG2” value amounted to 15.7 µM. The IC50 (in data set [1] (setting [2]); in the data set on S. mansoni adult worms) was 5 nM each time.

Consider `CC(C)c1cccc(-c2cn3c(-c4ccc5[nH]ncc5c4F)c(C(F)(F)F)nc3cn2)c1` [Example 66, 3-(4-Fluoro-1H-indazol-5-yl)-6-(3-isopropyl-phenyl)-2-trifluoromethyl-imidazo[1,2-a]pyrazine], for which, in the data set on HepG2 cell line, the “(e) Cytotox HepG2” value turned out to be 12.9 µM. Moreover, the IC50 (in data set [1] (setting [2]); in the data set with S. mansoni adult worms) was 5.2 nM each time.

Turning to `CC(C)Oc1cc(-c2cn3c(-c4ccc5[nH]ncc5c4F)c(C(F)(F)F)nc3cn2)ccc1F` [Example 81, 3-(4-Fluoro-1H-indazol-5-yl)-6-(4-fluoro-3-isopropoxy-phenyl)-2-trifluoromethyl-imidazo[1,2-a]pyrazine], the “(e) Cytotox HepG2” value in the data set with HepG2 cell line is 9.2 µM. In addition, the IC50 in data set [1] (setting [2]) came to 12 nM; with S. mansoni adult worms, 11 nM.

Regarding `Fc1ccc(-c2cn3c(-c4ccc5[nH]ncc5c4F)c(C(F)(F)F)nc3cn2)cc1C1CCC1` [Example 82, 6-(3-Cyclobutyl-4-fluoro-phenyl)-3-(4-fluoro-1H-indazol-5-yl)-2-trifluoromethyl-imidazo[1,2-a]pyrazine], in the data set on HepG2 cell line, the “(e) Cytotox HepG2” value worked out at 6.1 µM. Further, the IC50 is 59 nM in data set [1] (setting [2]) and 45 nM with S. mansoni adult worms.

As for `CCc1nc2cnc(-c3ccc(F)c(C(F)(F)F)c3)cn2c1-c1c(F)cc(O)cc1F` [Example 36, 3,5-difluoro-4-[2-ethyl-6-[4-fluoro-3-(trifluoromethyl)phenyl]imidazo[1,2-a]pyrazin-3-yl]phenol], the “(e) Cytotox HepG2” value in the data set with HepG2 cell line was 8.3 µM. Moreover, the IC50 was determined as 51 nM in data set [1] (setting [2]) and 53 nM in the data set on S. mansoni adult worms.

For `CCc1nc2cnc(-c3ccc(F)c(C(F)(F)F)c3)cn2c1-c1ccc2[nH]ncc2c1F` [Example 37, 4-fluoro-5-{2-ethyl-6-[4-fluoro-3-(trifluoromethyl)phenyl]imidazo[1,2-a]pyrazin-3-yl}-1H-indazole], the “(e) Cytotox HepG2” value with HepG2 cell line is 13.1 µM. Moreover, in data set [1] (setting [2]), the IC50 stood at 110 nM.

Regarding `Cc1nc2cnc(-c3cccc(C(F)(F)F)c3)cn2c1-c1c(F)cc(O)cc1F` [Example 15, 3,5-difluoro-4-[2-methyl-6-[3-(trifluoromethyl)phenyl]imidazo[1,2-a]pyrazin-3-yl]phenol], the “(e) Cytotox HepG2” value with HepG2 cell line came to 8.4 µM. The IC50 in data set [1] (setting [2]) was determined as 170 nM.

As for `Cc1nc2cnc(-c3ccc(F)c(C(F)(F)F)c3)cn2c1-c1c(F)cc(OP(=O)(O)O)cc1F` [Example 41, 3,5-difluoro-4-{6-[4-fluoro-3-(trifluoromethyl)phenyl]-2-methyl-imidazo[1,2-a]pyrazin-3-yl}phenoxyphosphonic acid], in the data set with HepG2 cell line, the “(e) Cytotox HepG2” value stood at 6.8 µM. Besides, the IC50 in data set [1] is 100 nM.

Take `O=P(O)(O)Oc1cc(F)c(-c2c(C3CC3)nc3cnc(-c4ccc(F)c(C(F)(F)F)c4)cn23)c(F)c1` [Example 62, Phosphoric acid mono-{4-[2-cyclopropyl-6-(4-fluoro-3-trifluoromethyl-phenyl)-imidazo[1,2-a]pyrazin-3-yl]-3,5-difluoro-phenyl}ester]: the “(e) Cytotox HepG2” value with HepG2 cell line was determined as 14.8 µM. Also, in data set [1], the IC50 is 3.7 nM.

Source of the values: patent publication US11046700B2, “Substituted imidazo[1,2-a]pyrazines, pyrazolo[1,5-c]pyrimidines, pyrazolo[1,5-a]pyridines, and purines for the treatment of schistosomiasis” (Merck Patent GmbH, priority 2017, dated 2021).
